≈ marks a conversion by molar mass, not a printed value.
Key:
Assay type in all cases: physicochemical
[1] = Solubility test at room temperature
Description: The solubility of the crystal form A, the crystal form C and the free base in 0.1 M HCL, pH 4.5, or pH 6.8 buffer or water was tested at room temperature. In the test, the standard curves of the crystal form A, the crystal form C and the free base were plotted respectively. Subsequently, a appropriate amount of the crystal form A, the crystal form C and the free base was weighed respectively, to which was added a appropriate amount of solvent. The mixture was shaken at room temperature for 24 h, centrifuged. The supernatant was taken and the solubility was determined. The results are shown in Table 7, (the concentration unit is mg/mi).

[2] = Stability test of free base, crystal form A and crystal form C (content and related substance)
Description: The crystal form and purity change were measured respectively on 3rd and 7th day. The results are shown in Table 6, FIGS. 22, 23, 24 and 25. […]

[3] = Properties of crystal form I (DVS hygroscopicity, stability)
Description: The Dynamic Vapor Sorption (DVS) curve was acquired on the DVS Intrinsic of Surface Measurement Systems.
About 10 mg of the free base of the compound of formula X prepared according to the method of Example 1 was weighed into a glass vial, and an appropriate amount of ethyl acetate was added to obtain a nearly saturated solution, which was fully dissolved by ultrasonication and filtered. 20-200 uL of corresponding solvent was added to the clear filtrate, which was stood and the solvent was slowly evaporated at room temperature. After the solvent was completely evaporated, the resulting solid was collected and subjected to an XRPD test.

[4] = 0.1M HCL, room temperature, shaken 24 h
[5] = H2O, room temperature, shaken 24 h
[6] = pH 4.5 buffer, room temperature, shaken 24 h
[7] = pH 6.8 buffer, room temperature, shaken 24 h
[8] = 5° C., 0 d (control), listed as From A
[9] = 40° C./75% RH, 3 d, listed as From A
[10] = 40° C./75% RH, 7 d, listed as From A
[11] = 40° C./75% RH, 3 d, listed as From C
[12] = 40° C./75% RH, 7 d, listed as From C

SMILES: C[C@@]12CCCCC[C@@H](Cc3ccc(OC(=O)NC4COC4)cc31)[C@@H]2N [Form A]
- Final pH [1, 4]: 0.91
- phenomenon [1, 4]: Flocculent
- solubility at 24 h ([1]; 0.1 M HCl, simulated gastric fluid, thermodynamic from solid, room temperature, shaken 24 h): 17.8 mg/mL (≈ 51.8 mM)
- Final pH [1, 5]: 3.86
- phenomenon [1, 5]: Flocculent
- solubility [1, 5]: 8.25 mg/mL (≈ 24 mM)
- Final pH [1, 6]: 3.92
- phenomenon [1, 6]: clarified
- solubility [1, 6]: ≥8.36 mg/mL
- Final pH [1, 7]: 5.86
- phenomenon [1, 7]: clarified
- solubility [1, 7]: ≥11.03 mg/mL
- character ([2]; 5° C., 0 d (control)): off-white solid
- Area (%) [2, 8]: 99.82%
- Total impurity (%) [2, 8]: 0.18%
- RRT(%) 1.25 (related substance) ([2]; 5° C., 0 d, — = below detection limit): 0.18%
- RRT(%) 1.25 (related substance) ([2]; 40° C./75% RH, 3 d): 0.14%
- character ([2]; 40° C./75% RH, 3 d): off-white solid
- Area (%) [2, 9]: 99.47%
- RRT(%) 0.81 (related substance) [2, 9]: 0.39%
- Total impurity (%) [2, 9]: 0.53%
- RRT(%) 1.25 (related substance) ([2]; 40° C./75% RH, 7 d): 0.17%
- character ([2]; 40° C./75% RH, 7 d): off-white solid
- Area (%) [2, 10]: 99.28%
- RRT(%) 0.81 (related substance) [2, 10]: 0.54%
- Total impurity (%) [2, 10]: 0.72%
- RRT(%) 1.25 (related substance) ([2]; 60° C., 3 d): 0.20%
- character ([2]; 60° C., 3 d): off-white solid
- Area (%) ([2]; 60° C., 3 d, listed as From A): 99.68%
- RRT(%) 0.81 (related substance) ([2]; 60° C., 3 d, listed as From A): 0.12%
- Total impurity (%) ([2]; 60° C., 3 d, listed as From A): 0.32%
- RRT(%) 1.25 (related substance) ([2]; 60° C., 7 d): 0.30%
- character ([2]; 60° C., 7 d): off-white solid
- Area (%) ([2]; 60° C., 7 d, listed as From A): 99.58%
- RRT(%) 0.81 (related substance) ([2]; 60° C., 7 d, listed as From A): 0.11%
- Total impurity (%) ([2]; 60° C., 7 d, listed as From A): 0.42%

SMILES: C[C@@]12CCCCC[C@@H](Cc3ccc(OC(=O)NC4COC4)cc31)[C@@H]2N [Form C]
- Final pH [1, 4]: 1.53
- phenomenon [1, 4]: clarified
- solubility [1, 4]: ≥33.87 mg/mL
- Final pH [1, 5]: 3.45
- phenomenon [1, 5]: clarified
- solubility [1, 5]: ≥26.05 mg/mL
- solubility compared to the free base (in words) ([1]; pH 4.5, pH 6.8, or 0.1 M HCL): increased significantly
- Final pH [1, 6]: 3.47
- phenomenon [1, 6]: clarified
- solubility [1, 6]: ≥25.50 mg/mL
- Final pH [1, 7]: 3.84
- phenomenon [1, 7]: clarified
- solubility [1, 7]: ≥26.11 mg/mL
- character ([2]; 5° C., 0 d (control)): off-white solid
- Area (%) ([2]; 5° C., 0 d (control), listed as From C): 100.00%
- RRT(%) 0.70 (related substance) ([2]; 40° C./75% RH, 3 d): 3.60%
- RRT(%) 1.14 (related substance) ([2]; 40° C./75% RH, 3 d): 0.93%
- character ([2]; 40° C./75% RH, 3 d): off-white solid
- Area (%) [2, 11]: 94.92%
- RRT(%) 0.81 (related substance) [2, 11]: 0.54%
- Total impurity (%) [2, 11]: 5.08%
- RRT(%) 0.70 (related substance) ([2]; 40° C./75% RH, 7 d): 3.04%
- RRT(%) 1.14 (related substance) ([2]; 40° C./75% RH, 7 d): 0.92%
- character ([2]; 40° C./75% RH, 7 d): off-white solid
- Area (%) [2, 12]: 95.19%
- RRT(%) 0.81 (related substance) [2, 12]: 0.85%
- Total impurity (%) [2, 12]: 4.81%
- RRT(%) 0.70 (related substance) ([2]; 60° C., 3 d): 3.68%
- RRT(%) 1.14 (related substance) ([2]; 60° C., 3 d): 1.44%
- character ([2]; 60° C., 3 d): off-white solid
- Area (%) ([2]; 60° C., 3 d, listed as From C): 94.64%
- RRT(%) 0.81 (related substance) ([2]; 60° C., 3 d, listed as From C): 0.24%
- Total impurity (%) ([2]; 60° C., 3 d, listed as From C): 5.36%
- RRT(%) 0.70 (related substance) ([2]; 60° C., 7 d): 3.60%
- RRT(%) 1.14 (related substance) ([2]; 60° C., 7 d): 1.52%
- character ([2]; 60° C., 7 d): off-white solid
- Area (%) ([2]; 60° C., 7 d, listed as From C): 94.62%
- RRT(%) 0.81 (related substance) ([2]; 60° C., 7 d, listed as From C): 0.26%
- Total impurity (%) ([2]; 60° C., 7 d, listed as From C): 5.38%

SMILES: C[C@@]12CCCCC[C@@H](Cc3ccc(OC(=O)NC4COC4)cc31)[C@@H]2N [Form I]
- stability (in words) [3]: good stability
- hygroscopicity (DVS curve) ([3]; DVS, 25° C., 0% RH~95% RH): almost has no hygroscopicity
